Columns and labels:
[1] = tested on: Glomerella laqenarium (Colletotrichum lagenarium); assay: Fungicidal activity against Glomerella lagenarium (Colletotrichum lagenarium) liquid culture / cucumber / preventative (anthracnose); type: cell-based; settings: Colletotrichum orbiculare; 20 ppm in the applied formulation; liquid culture in PDB, 24° C., 3 to 4 days after application; read-out: disease control compared to untreated control (inhibition of growth measured photometrically)
Procedure, shortened: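 Cryostored conidia mixed into potato dextrose broth and added to test compound (from DMSO solution) in microtiter plates. Incubated at 24 °C; growth inhibition read photometrically 3 to 4 days after application, as percent activity versus untreated check.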

Phakopsora pachyrhizi = assay: Fungicidal activity against Phakopsora pachyrhizi / soybean / leaf disc preventative (Asian soybean rust); type: in vivo; settings: foliar, 200 ppm in the applied formulation, soybean leaf disks, preventative (inoculated one day after application), assessed 12 to 14 days after application, read-out: disease control compared to untreated control leaf disks
Procedure, shortened: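 Soybean leaf discs on water agar sprayed with formulated compound diluted in water; spore suspension sprayed on lower leaf surface one day later. Incubated 24-36 h dark at 20° C, 75% rh, then 20° C, 12 h light/day, 75% rh. Percent disease control versus untreated scored 12 to 14 days after application.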

Uromyces viciae-fabae = assay: Fungicidal activity against Uromyces viciae-fabae / field bean / leaf disc preventative (faba-bean rust); type: in vivo; settings: foliar, 288 h, 100 ppm in the applied formulation, field bean leaf discs, preventative (inoculated two hours after application), assessed 12 days after application, read-out: disease control compared to untreated control leaf discs
Experimental: Leaf disks or leaf segments of various plant species are cut from plants grown in a greenhouse. The cut leaf disks or segments are placed in multiwell plates (24-well format) onto water agar. The leaf disks are sprayed with a test solution before (preventative) or after (curative) inoculation. Compounds to be tested are prepared as DMSO solutions (max. 10 mg/ml) which are diluted to the appropriate concentration with 0.025% Tween20 just before spraying. The inoculated leaf disks or segments are incubated under defined conditions (temperature, relative humidity, light, etc.) according to the respective test system. A single evaluation of disease level is carried out 3 to 14 days after inoculation, depending on the pathosystem. Percent disease control relative to the untreated check leaf disks or segments is then calculated. General Examples of Liquid Culture Tests in Well Plates:
Example 5: Fungicidal Activity Against Uromyces viciae-fabae/Field Bean/Leaf Disc Preventative (Faba-Bean Rust)
Field bean leaf discs are placed on water agar in multiwell plates (96-well format) and 10 μl of the formulated test compound diluted in acetone and a spreader pipetted onto the leaf disc. Two hours after application leaf discs are inoculated by spraying a spore suspension on the lower leaf surface. The leaf discs are incubated in a climate cabinet at 22° C. with 18 hour day and 70% relative humidity. The activity of a compound is assessed as percent disease control compared to untreated when an appropriate level of disease damage appears in untreated check leaf disks (12 days after application).
The following compounds at 100 ppm in the applied formulation give at least 80% disease control in this test when compared to untreated control leaf discs under the same conditions, which show extensive disease development.

[2] = tested on: Puccinia recondita f. sp. tritici; assay: Fungicidal activity against Puccinia recondita f. sp. tritici / wheat / leaf disc preventative (brown rust); type: in vivo; settings: foliar, 200 ppm in the applied formulation, wheat leaf segments cv. Kanzler, preventative (inoculated 1 day after application), assessed 7 to 9 days after application, read-out: disease control compared to untreated control leaf disks
Procedure, shortened: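 Wheat cv. Kanzler leaf segments on agar sprayed with formulated compound diluted in water, inoculated with P. recondita spores 1 day later. Incubated at 19C, 75% rh, 12 h light/12 h dark; scored 7 to 9 days after application as percent disease control versus untreated segments. Test rate 200 ppm.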

[3] = tested on: Puccinia recondita f. sp. tritici; assay: Fungicidal activity against Puccinia recondita f. sp. tritici / wheat / leaf disc curative (brown rust); type: in vivo; settings: foliar, 200 ppm in the applied formulation, wheat leaf segments cv. Kanzler, curative (applied 1 day after inoculation), assessed 6 to 8 days after application, read-out: disease control compared to untreated control leaf disks
Procedure, shortened: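 Wheat cv. Kanzler leaf segments on agar, spore-inoculated, held dark at 19° C./75% RH; formulated compound in water sprayed 1 day post-inoculation (curative). Incubated 19° C., 75% RH, 12 h light/12 h dark; percent disease control vs untreated scored 6 to 8 days after application.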

| Structure (SMILES) | inhibition at 20 ppm [1] | pest or weed control at 200 ppm (Phakopsora pachyrhizi) | pest or weed control at 100 ppm (Uromyces viciae-fabae) | pest or weed control at 200 ppm [2] | pest or weed control at 200 ppm [3] |
| --- | --- | --- | --- | --- | --- |
| C#CC1(NC(=O)c2ccc(-c3noc(C(F)(F)F)n3)cc2F)CCCCC1 [Compound 2b.2, N-(1-ethynylcyclohexyl)-2-fluoro-4-[5-(trifluoromethyl)-1,2,4-oxadiazol-3-yl]benzamide] | ≥ 80% | ≥ 80% | ≥ 80% | – | – |
| O=C(NCCc1cccs1)c1ccc(-c2noc(C(F)(F)F)n2)cc1Cl [Compound 5b.18, 2-chloro-N-[2-(2-thienyl)ethyl]-4-[5-(trifluoromethyl)-1,2,4-oxadiazol-3-yl]benzamide] | ≥ 80% | – | ≥ 80% | ≥ 80% | – |
| O=C(NC1(Cc2ccc(Cl)cc2)CC1)c1ccc(-c2noc(C(F)(F)F)n2)cc1 [Compound 2a.7, N-[1-[(4-chlorophenyl)methyl]cyclopropyl]-4-[5-(trifluoromethyl)-1,2,4-oxadiazol-3-yl]benzamide] | – | ≥ 80% | ≥ 80% | ≥ 80% | – |
| COC(=O)CNC(=O)c1ccc(-c2noc(C(F)(F)F)n2)cc1 [Compound 3a.4, methyl 2-[[4-[5-(trifluoromethyl)-1,2,4-oxadiazol-3-yl]benzoyl]amino]acetate] | ≥ 80% | ≥ 80% | ≥ 80% | ≥ 80% | – |
| O=C(Nc1nc(Br)n[nH]1)c1ccc(-c2noc(C(F)(F)F)n2)cc1F [Compound 5b.10, N-(3-bromo-1H-1,2,4-triazol-5-yl)-2-fluoro-4-[5-(trifluoromethyl)-1,2,4-oxadiazol-3-yl]benzamide] | ≥ 80% | – | ≥ 80% | ≥ 80% | – |
| O=C(NC1(C2CC2)CC1)c1ccc(-c2noc(C(F)(F)F)n2)cc1F [Compound 2b.6, N-(1-cyclopropylcyclo-propyl)-2-fluoro-4-[5-(trifluoromethyl)-1,2,4-oxadiazol-3-yl]benzamide] | ≥ 80% | ≥ 80% | ≥ 80% | – | – |
| CCOc1ccc(CN(C(=O)c2ccc(-c3noc(C(F)(F)F)n3)cc2F)C(C)C)cc1OCC [Compound 4b.11, N-[(3,4-diethoxyphenyl)methyl]-2-fluoro-N-isopropyl-4-[5-(trifluoromethyl)-1,2,4-oxadiazol-3-yl]benzamide] | ≥ 80% | – | ≥ 80% | ≥ 80% | – |
| CN(C(=O)c1ccc(-c2noc(C(F)(F)F)n2)cc1F)C1CCOC1 (stereo not drawn) [Compound 1b.7, 2-fluoro-N-methyl-N-tetrahydrofuran-3-yl-4-[5-(trifluoromethyl)-1,2,4-oxadiazol-3-yl]benzamide] | – | – | ≥ 80% | – | ≥ 80% |
| CN(C(=O)c1ccc(-c2noc(C(F)(F)F)n2)cc1)C1CCSC1 (stereo not drawn) [Compound 1a.9, N-methyl-N-tetra-hydrothiophen-3-yl-4-[5-(trifluoromethyl)-1,2,4-oxadiazol-3-yl]benzamide] | – | – | ≥ 80% | – | ≥ 80% |
| COC(=O)C1(NC(=O)c2ccc(-c3noc(C(F)(F)F)n3)cc2)CCCN(OC)C1 (stereo not drawn) [Compound 1a.8, methyl 1-methoxy-3-[[4-[5-(trifluoromethyl)-1,2,4-oxadiazol-3-yl]benzoyl]amino]piperidine-3-carboxylate] | – | – | ≥ 80% | – | ≥ 80% |
| O=C(Nc1cn[nH]c1)c1ccc(-c2noc(C(F)(F)F)n2)cc1F [Compound 5b.7, 2-fluoro-N-(1H-pyrazol-4-yl)-4-[5-(trifluoromethyl)-1,2,4-oxadiazol-3-yl]benzamide] | ≥ 80% | ≥ 80% | ≥ 80% | ≥ 80% | – |
| CC1CCC(NC(=O)c2ccc(-c3noc(C(F)(F)F)n3)cc2)CC1 (stereo not drawn) [Compound 2a.6, N-(4-methylcyclohexyl)-4-[5-(trifluoromethyl)-1,2,4-oxadiazol-3-yl]benzamide] | – | ≥ 80% | ≥ 80% | ≥ 80% | – |
| O=C(NCCc1cccs1)c1ccc(-c2noc(C(F)(F)F)n2)cc1 [Compound 5a.7, N-[2-(2-thienyl)ethyl]-4-[5-(trifluoromethyl)-1,2,4-oxadiazol-3-yl]benzamide] | ≥ 80% | ≥ 80% | ≥ 80% | ≥ 80% | – |
| CN(CC1CCCCO1)C(=O)c1ccc(-c2noc(C(F)(F)F)n2)cc1F (stereo not drawn) [Compound 1b.10, 2-fluoro-N-methyl-N-(tetrahydropyran-2-ylmethyl)-4-[5-(trifluoromethyl)-1,2,4-oxadiazol-3-yl]benzamide] | – | – | ≥ 80% | – | ≥ 80% |
| CCN1CCC[C@@H]1CNC(=O)c1ccc(-c2noc(C(F)(F)F)n2)cc1F [Compound 1b.1, N-[[(2R)-1-ethylpyrrolidin-2-yl]methyl]-2-fluoro-4-[5-(trifluoromethyl)-1,2,4-oxadiazol-3-yl]benzamide] | – | ≥ 80% | ≥ 80% | ≥ 80% | – |
| CC(C)(C)OC(=O)N1CCC(CNC(=O)c2ccc(-c3noc(C(F)(F)F)n3)cc2)CC1 [Compound 1a.11, tert-butyl 4-[[[4-[5-(trifluoromethyl)-1,2,4-oxadiazol-3-yl]benzoyl]amino]methyl]piperidine-1-carboxylate] | – | – | ≥ 80% | ≥ 80% | – |
| CN(CC1CCCCN1C)C(=O)c1ccc(-c2noc(C(F)(F)F)n2)cc1 (stereo not drawn) [Compound 1a.10, N-methyl-N-[(1-methyl-2-piperidyl)methyl]-4-[5-(trifluoromethyl)-1,2,4-oxadiazol-3-yl]benzamide] | – | – | ≥ 80% | ≥ 80% | – |
| O=C(NC1CCN(Cc2ccccc2)CC1)c1ccc(-c2noc(C(F)(F)F)n2)cc1F [Compound 1b.3, N-(1-benzyl-4-piperidyl)-2-fluoro-4-[5-(trifuoromethyl)-1,2,4-oxadiazol-3-yl]benzamide] | – | ≥ 80% | ≥ 80% | ≥ 80% | – |
| O=C(NCC1CCOC1)c1ccc(-c2noc(C(F)(F)F)n2)cc1Cl (stereo not drawn) [Compound 1b.14, 2-chloro-N-(tetrahydrofuran-3-ylmethyl)-4-[5-(trifluoromethyl)-1,2,4-oxadiazol-3-yl]benzamide] | ≥ 80% | ≥ 80% | ≥ 80% | ≥ 80% | – |
| CC(NC(=O)c1ccc(-c2noc(C(F)(F)F)n2)cc1Cl)C1CC1 (stereo not drawn) [Compound 2b.15, 2-chloro-N-(1-cyclopropylethyl)-4-[5-(trifluoromethyl)-1,2,4-oxadiazol-3-yl]benzamide] | – | ≥ 80% | ≥ 80% | ≥ 80% | – |
| CC(NC(=O)c1ccc(-c2noc(C(F)(F)F)n2)cc1F)C1(C)OCCO1 (stereo not drawn) [Compound 1b.12, 2-fluoro-N-[1-(2-methyl-1,3-dioxolan-2-yl)ethyl]-4-[5-(trifluoromethyl)-1,2,4-oxadiazol-3-yl]benzamide] | – | – | ≥ 80% | – | ≥ 80% |
| O=C(NCCCCc1ccccc1)c1ccc(-c2noc(C(F)(F)F)n2)cc1F [Compound 4b.10, 2-fluoro-N-(4-phenylbutyl)-4-[5-(trifluoromethyl)-1,2,4-oxadiazol-3-yl]benzamide] | ≥ 80% | ≥ 80% | ≥ 80% | – | – |
